Laboratory results taken from patent EP0280610B1, “Dipeptides, preparation process and use in dosing proteases” (SERBIO, priority 1987, dated 1992).

Columns and labels:
Protéine C bovine = experiment: Hydrolysis rate of chromogenic substrates by activated bovine protein C (pNA release, OD at 405 nm); format: biochemical; conditions: compared with reference product A4; underlying results expressed in ΔOD/minute at 405 nm, TEA buffer pH 8,4
Excerpt: (§1) L'activité des dipeptides suivant l'invention et des tripeptides consignés dans le tableau I a été étudiée sur la thrombine humaine, la plasmine humaine, le Facteur Xa humaine et la Protéine C bovine, les tripeptides A1-A4 étant les substrats de référence du commerce. La libération du marquer HR₁ (i.e. amine H₂NRʹ₁), qui est objectivée par la variation de OD pendant l'hydrolyse enzymatique des substrats, sert d'outil de comparaison.
(§2) La lecture de OD est en général effectuée à 300-470 nm, et plus précisément à 405 nm quand R₁ est pNA, pendant environ 5 minutes.
(§3) Les essais ont été réalisés sur appareil GILFORD 203 S pour automatiser la lecture des échantillons et standardiser leur traitement.
(§4) On prépare des solutions dans du sérum physiologique renfermant chacune un enzyme : thrombine humaine 3 UNIH/ml Facteur Xa humain 3,7 nkat/ml plasmine humaine 2,3 nkat/ml protéine C bovine activée 10µg/ml
(§5) On dissout chaque peptide à tester dans le l'eau à une concentration de 10 mg/ml.
(§6) 400 µl d'enzyme dilué au 1/2 dans du tampon TEA (pH 8,4) sont ajoutés à 200 µl de chacun des différents peptides à tester. On détermine les vitesses d'hydrolyse desdits substrats en suivant l'évolution de la libération de pNA. Cette évolution peut être suivie par la lecture de la varition de OD par unité de temps (ΔOD/minute) à 405 nm.

plasmine humaine = experiment: Hydrolysis rate of chromogenic substrates by human plasmin (pNA release, OD at 405 nm); format: biochemical; conditions: compared with reference product A3; underlying results expressed in ΔOD/minute at 405 nm, TEA buffer pH 8,4
Excerpt: as §1, §2, §3, §4, §5, §6

Substance: MM-L-4Hyp-L-Arg-pNA, H-TFA [EX 10]
- sensibilité à la protéine C (Protéine C bovine): plus sensibles à la protéine C que le produit de référence A4
- sensibilité à la plasmine (plasmine humaine): plus sensible à la plasmine que le produit de référence A3
